Measurements published in PMC4366261, “Characterization of the Intestinal Absorption of Seven Flavonoids from the Flowers of Trollius chinensis Using the Caco-2 Cell Monolayer Model” (PLoS ONE, 2015).
Where “and” joins values, the source holds several entries; their conditions need not be identical. Equal entries are not always repeated.

Tests used:
influenza virus A = system: influenza virus A; parameters: method as in PMID 17193271; conditions: cited from earlier work
murine ear edema model = conditions: cited from earlier work
Caco-2 cell monolayer = experiment: Transport experiment across Caco-2 cell monolayer (Papp); format: in vitro ADME, human; conditions: for Absorption mechanism: from P ratio, time course and concentration course; for P ratio Papp AP→BL/Papp BL→AP: 90 min
Protocol: (§1) For cells differentiation to form a confluent monolayer, Caco-2 cells were seeded into the inserts of the 12-well Transwell plates at the density of 1.0×10^5 cells/cm^2. The culture medium was replaced on every other day in the first week, and then at daily intervals for the apical (AP) side and 2 days intervals for the basal (BL) side until the transport experiment was performed 21 days after seeding. The AP and BL sides contained 0.5 and 1.5 mL of culture medium, respectively. […] The cell inserts were considered as qualified only if the resistance reached above 600 Ω cm^2.
(§2) On day 21, the transport experiment was initiated by removal of the culture medium from AP and BL sides. The Caco-2 monolayers were rinsed twice with pre-warmed Hanks balanced salt solution (HBSS) and were incubated with the same solution at 37°C for 30 min. The seven individual test compounds and an equimolar mixture of them were pre-dissolved in DMSO, and then diluted to 25, 50, and 100 μmol/L with an appropriate volume of HBSS to allow the final concentration of DMSO to be less than 1%. The test compounds were added to the AP (0.5 mL) or BL side (1.5 mL), while the receiving chamber contained the corresponding volume of HBSS. Incubation was performed at 37°C for 180 min, with shaking at 50 rpm. At 30, 60, 90, 120, 150, and 180 min, each 0.2 mL of the solution from BL or AP side was collected, and replaced with an equal volume of HBSS. The samples were frozen immediately and stored below-20°C before analysis.
(§3) The apparent permeability coefficients (Papp) were determined in this study by HPLC quantification of the compounds in the receiver chamber after transport across the Caco-2 monolayer. The calculation was carried out in accordance with the formula Papp = (dQ/dt)×(1/A)×(1/C0), wherein dQ/dt was the rate of appearance of the test compound in the receiver compartment (μmol/s); C0 was the initial concentration of test compound in the donor compartment (μmol/mL); and A was the surface area of the Caco-2 monolayer (cm^2). The percentage transported (%) was calculated using the formula % transported = QB/(CS×VD)×100, wherein QB was the quantity of compound in the receiver compartment (μmol); CS was the concentration of test compound in the donor compartment (μmol/mL); VD was the liquid volume of the donor compartment (mL). The transport rate (μmol/h/cm^2) was calculated using the formula transport rate = QB/(t×A), wherein QB was the quantity of compound in the receiver compartment (μmol); t was the incubation time (h); A was the surface area of the Caco-2 monolayer (cm^2).

[1] = as above; format: in vitro ADME, human; conditions: human, 50 μmol/L, 90 min
Protocol: as §1, §2, §3

Caco-2 cells = experiment: MTT assay, survival rate of Caco-2 cells; format: cell-based, human; conditions: 4 h
From the text: The human colon adenocarcinoma cell line Caco-2 (No. 3111C0001CCC000100, passage 32) was obtained from the Cell Resource Center, Peking Union Medical College (the headquarters of National Infrastructure of Cell Line Resource, NSTI) on May 3rd, 2013. The cell line was checked free of mycoplasma contamination by PCR and culture, its species origin was confirmed with PCR, and its identity was authenticated with STR profiling (FBI, CODIS). All results of the above tests can be viewed on the website (http://cellresource.cn). The cells were cultured in 25 cm^2 flasks in DMEM medium supplemented with 10% (v/v) FBS, 1% (v/v) NEAA, and 1% (v/v) penicillin-streptomycin, in an atmosphere of 5% CO2 at 37°C and constant moisture. The culture medium was replaced every 2 to 3 days, and the cells were split 1:2 or 1:3 as 80% confluence was obtained.
Caco-2 cells at logarithmic growth phase were seeded into 96-well plates and incubated at 37°C in an atmosphere of 5% CO2 and constant moisture in the incubator. After the cells reached confluence, they were cultured in quadruplicate with 100 μL of HBSS solution (negative control) and compound-containing HBSS solution (seven flavonoids or paclitaxel (positive control) at the concentrations of 25, 50, and 100 μmol/L, respectively) for 4 h. Then, HBSS solution was replaced by 100 μL of MTT solution (0.5 mg/mL), and the supernatant was discarded after 4 h of incubation at 37°C. The cells were shaken with 150 μL of DMSO for 10 min, and the absorbance was read on the microplate reader at 570 nm. The survival rate %=A¯/A0¯×100 , wherein A¯ was the average absorbance value of treatment or positive control group, and A0¯ was the average absorbance value of negative control group.

[2] = Stability of sample solutions at room temperature by HPLC; format: physicochemical; conditions: sample solution at room temperature, HPLC at 0, 1, 2, 4, 6, 12 and 24 h
Protocol: The intra-day precision was determined by investigating the analytes in sextuplicates during a single day, and the inter-day precision was determined by conducting the intra-day experiment on two consecutive days. […] Each one sample solution of the seven flavonoids was kept at room temperature, and then their stabilities were determined by injecting them into apparatus at 0, 1, 2, 4, 6, 12, and 24 h.

[3] = target: T1, multidrug resistance protein 2 (MRP2) (Homo sapiens, UniProt Q92887); experiment: Transporter inhibition experiment with probenecid (MRP2) in Caco-2 monolayer; format: in vitro ADME; conditions: 50 μmol/L compound, 600 μmol/L probenecid, AP to BL
T1 construct: endogenous in cells; host or cells: Caco-2 cells
T1 sequence (Q92887 whole entry): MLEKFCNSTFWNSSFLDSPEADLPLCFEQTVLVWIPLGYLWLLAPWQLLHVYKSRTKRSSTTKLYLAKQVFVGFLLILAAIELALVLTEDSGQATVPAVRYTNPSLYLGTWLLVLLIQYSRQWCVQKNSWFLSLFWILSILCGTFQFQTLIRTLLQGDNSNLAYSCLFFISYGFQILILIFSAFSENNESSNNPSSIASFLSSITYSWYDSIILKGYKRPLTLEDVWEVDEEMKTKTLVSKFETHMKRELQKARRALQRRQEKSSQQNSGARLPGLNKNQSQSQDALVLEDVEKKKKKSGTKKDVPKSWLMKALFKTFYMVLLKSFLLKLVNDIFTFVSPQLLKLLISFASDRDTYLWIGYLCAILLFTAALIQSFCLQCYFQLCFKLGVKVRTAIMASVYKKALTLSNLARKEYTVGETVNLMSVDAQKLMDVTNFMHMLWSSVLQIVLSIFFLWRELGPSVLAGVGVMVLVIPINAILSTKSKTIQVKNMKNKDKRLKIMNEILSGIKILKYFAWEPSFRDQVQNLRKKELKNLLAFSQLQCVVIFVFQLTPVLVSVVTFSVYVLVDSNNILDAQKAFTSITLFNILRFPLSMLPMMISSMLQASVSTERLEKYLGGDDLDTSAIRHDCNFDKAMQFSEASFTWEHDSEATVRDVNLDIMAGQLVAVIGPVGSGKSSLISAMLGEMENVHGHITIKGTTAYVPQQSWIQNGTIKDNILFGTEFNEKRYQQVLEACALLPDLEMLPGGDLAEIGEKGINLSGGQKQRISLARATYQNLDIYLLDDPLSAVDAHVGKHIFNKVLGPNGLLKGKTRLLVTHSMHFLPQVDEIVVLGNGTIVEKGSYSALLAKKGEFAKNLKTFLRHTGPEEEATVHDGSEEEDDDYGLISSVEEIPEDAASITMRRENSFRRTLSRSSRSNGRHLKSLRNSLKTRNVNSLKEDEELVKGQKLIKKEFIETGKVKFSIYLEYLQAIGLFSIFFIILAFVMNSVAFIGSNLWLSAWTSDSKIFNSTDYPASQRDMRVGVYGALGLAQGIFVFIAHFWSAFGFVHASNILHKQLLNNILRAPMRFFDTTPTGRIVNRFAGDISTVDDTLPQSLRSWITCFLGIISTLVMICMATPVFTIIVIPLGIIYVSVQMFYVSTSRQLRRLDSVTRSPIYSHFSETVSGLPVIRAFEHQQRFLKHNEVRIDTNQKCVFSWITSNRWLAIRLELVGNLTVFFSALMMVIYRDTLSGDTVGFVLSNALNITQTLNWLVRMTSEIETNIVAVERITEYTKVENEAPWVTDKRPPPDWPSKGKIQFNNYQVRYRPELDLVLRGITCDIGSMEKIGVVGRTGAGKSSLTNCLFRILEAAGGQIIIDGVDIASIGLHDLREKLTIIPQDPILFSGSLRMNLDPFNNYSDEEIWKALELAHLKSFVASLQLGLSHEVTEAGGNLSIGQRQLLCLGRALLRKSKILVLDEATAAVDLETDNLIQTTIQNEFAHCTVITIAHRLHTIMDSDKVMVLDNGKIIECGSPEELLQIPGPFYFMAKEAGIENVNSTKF
Protocol: (§4) On day 21, transport study was initiated by carefully removing the culture medium from both AP and BL sides. The Caco-2 monolayers were rinsed twice with pre-warmed HBSS and were incubated with the same solution at 37°C for 30 min. […] The final concentration of DMSO in these solutions was less than 1%. […] Incubation was performed at 37°C for 180 min, with shaking at 50 rpm. […] The samples were frozen immediately and stored below-20°C before analysis.

P-glycoprotein (P-gp) = target: T2, P-glycoprotein (P-gp) (Homo sapiens, UniProt P08183); experiment: Transporter inhibition experiment with verapamil hydrochloride (P-gp) in Caco-2 monolayer; format: in vitro ADME; conditions: 50 μmol/L compound, 100 μmol/L verapamil hydrochloride, AP to BL
T2 construct: endogenous in cells; host or cells: Caco-2 cells
T2 sequence (P08183 whole entry): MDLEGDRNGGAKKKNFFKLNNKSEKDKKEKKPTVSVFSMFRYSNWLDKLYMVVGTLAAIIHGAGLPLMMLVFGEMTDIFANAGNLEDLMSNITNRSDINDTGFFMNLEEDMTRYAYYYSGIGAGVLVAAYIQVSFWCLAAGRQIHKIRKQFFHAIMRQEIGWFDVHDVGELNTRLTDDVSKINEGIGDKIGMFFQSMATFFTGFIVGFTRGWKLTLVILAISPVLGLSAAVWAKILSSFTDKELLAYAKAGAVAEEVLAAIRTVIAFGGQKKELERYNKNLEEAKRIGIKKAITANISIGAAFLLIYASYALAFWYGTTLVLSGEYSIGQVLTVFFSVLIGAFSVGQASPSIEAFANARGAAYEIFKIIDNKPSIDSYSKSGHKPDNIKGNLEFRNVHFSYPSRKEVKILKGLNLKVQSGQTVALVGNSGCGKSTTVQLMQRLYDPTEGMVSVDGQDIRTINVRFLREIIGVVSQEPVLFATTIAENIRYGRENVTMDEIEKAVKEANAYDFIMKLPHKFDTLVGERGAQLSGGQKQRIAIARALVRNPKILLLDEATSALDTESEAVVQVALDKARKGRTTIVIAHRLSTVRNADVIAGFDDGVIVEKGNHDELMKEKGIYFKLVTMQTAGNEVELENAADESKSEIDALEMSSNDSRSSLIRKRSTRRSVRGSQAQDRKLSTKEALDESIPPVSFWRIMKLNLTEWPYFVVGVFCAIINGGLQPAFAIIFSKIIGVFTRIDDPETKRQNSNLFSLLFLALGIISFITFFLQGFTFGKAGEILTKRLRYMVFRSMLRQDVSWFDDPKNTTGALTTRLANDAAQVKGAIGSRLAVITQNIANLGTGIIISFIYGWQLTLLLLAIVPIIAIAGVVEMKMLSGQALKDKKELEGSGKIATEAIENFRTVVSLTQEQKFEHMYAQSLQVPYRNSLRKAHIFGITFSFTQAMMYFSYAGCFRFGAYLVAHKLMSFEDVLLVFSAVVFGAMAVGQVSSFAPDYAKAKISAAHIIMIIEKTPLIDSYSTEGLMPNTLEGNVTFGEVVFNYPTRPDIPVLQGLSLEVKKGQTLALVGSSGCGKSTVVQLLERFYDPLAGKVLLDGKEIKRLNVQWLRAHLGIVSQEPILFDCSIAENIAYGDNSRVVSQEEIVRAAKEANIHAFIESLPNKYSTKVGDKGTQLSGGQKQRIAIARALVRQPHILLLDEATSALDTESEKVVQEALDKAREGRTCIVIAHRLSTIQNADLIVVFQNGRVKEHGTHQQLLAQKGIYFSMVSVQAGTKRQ
Protocol: as §4

[4] = in the equimolar mixture of the seven flavonoids, 50 μmol/L
[5] = Caco-2, in the equimolar mixture of the seven flavonoids

| Compound | Effect against influenza virus A (influenza virus A) | Inhibitory rate on murine ear edema model (murine ear edema model) [%] | Transport percentage BL to AP in the equimolar mixture compared with individual state (Caco-2 cell monolayer; 50 μmol/L) | Absorbability assessment based on bidirectional Papp values (Caco-2 cell monolayer; compared with atenolol and propranolol) | Absorption mechanism (Caco-2 cell monolayer) | P ratio Papp AP→BL/Papp BL→AP (Caco-2 cell monolayer; [4]) | P ratio Papp AP→BL/Papp BL→AP (Caco-2 cell monolayer; individual compound, 50 μmol/L) | Papp A→B at 90 min, 50 μmol/L [1, 5] [×10⁻⁶ cm/s] | Papp B→A at 90 min, 50 μmol/L [1, 5] [×10⁻⁶ cm/s] | Papp A→B at 90 min, 50 μmol/L ([1]; Caco-2, individual compound) [×10⁻⁶ cm/s] | Papp B→A at 90 min, 50 μmol/L ([1]; Caco-2, individual compound) [×10⁻⁶ cm/s] | Survival rates (%) (Caco-2 cells; 25 μmol/L) | Survival rates (%) (Caco-2 cells; 50 μmol/L) | Survival rates (%) (Caco-2 cells; 100 μmol/L) | RSD% values for 24-hour stability [2] [%] | Substrate of MRP2 [3] | Effect of probenecid on the transport ([3]; 180 min) | Substrate of P-gp (P-glycoprotein (P-gp)) | Effect of verapamil hydrochloride on the transport (P-glycoprotein (P-gp); 180 min) |
| --- | --- | --- | --- | --- | --- | --- | --- | --- | --- | --- | --- | --- | --- | --- | --- | --- | --- | --- | --- |
| CCC(C)C(=O)O[C@@H]1[C@@H](O)[C@H](O)[C@@H](CO)O[C@H]1c1c(OC)cc(O)c2c(=O)cc(-c3ccc(O)cc3)oc12 (stereo partly drawn) [2”-O-(2”‘-methylbutanoyl)isoswertisin, (2S,3R,4S,5S,6R)-4,5-dihydroxy-2-(5-hydroxy-2-(4-hydroxyphenyl)-7-methoxy-4-oxo-4H-chromen-8-yl)-6-(hydroxymethyl)tetrahydro-2H-pyran-3-yl 2-methylbutanoate] | had an effect | 35.5 | increased almost twice | moderate absorbable compound | passive diffusion without participation of transporter | 0.25 | ~1 and 0.94 | 3.49 ± 0.47 | 13.7 ± 1.14 | 4.5 ± 0.03 | 4.8 ± 0.53 | 108.8±10.3 | 127.6±4.9 | 128.9±12.5 | 3.89 | – | – | – | – |
| O=c1cc(-c2ccc(O)c(O)c2)oc2c([C@@H]3O[C@H](CO)[C@@H](O)[C@H](O)[C@H]3O[C@@H]3O[C@H](CO)[C@H](O)[C@H](O)[C@H]3O)c(O)cc(O)c12 [2”-O-β-L-galactopyranosylorientin, 8-((2S,3R,4S,5S,6R)-4,5-dihydroxy-6-(hydroxymethyl)-3-(((2S,3R,4S,5R,6R)-3,4,5-trihydroxy-6-(hydroxymethyl)tetrahydro-2H-pyran-2-yl)oxy)tetrahydro-2H-pyran-2-yl)-2-(3,4-dihydroxyphenyl)-5,7-dihydroxy-4H-chromen-4-one] | – | – | – | – | transporter mediated efflux in addition to passive diffusion | 1.90 | 0.40 | 1.31 ± 0.38 | 0.69 ± 0.26 | 1.84 ± 0.01 | 4.58 ± 0.18 | 111.0±9.1 | 104.7±2.7 | 102.7±7.7 | 2.86 | substrate of MRP2 | significantly promoted | nonsubstrates of P-gp | had no effect |
